Measured values: patent publication US7875638B2, “Synthesis of epothilones, intermediates thereto, analogues and uses thereof” (Sloan-Kettering Institute for Cancer Research, priority 2002, dated 2011)

Tested on: RPMI-8226 (human multiple myeloma cell line)
Assay: Global gene expression (Affymetrix chip AU133 2.0)
Assay type: cell-based
[1] = 6 hr gene difference, Fludelone vs dEpoB treated cells
[2] = 18 hr gene difference, Fludelone vs dEpoB treated cells

Structure (SMILES): C/C(=C\c1csc(C)n1)[C@@H]1C/C=C(/C(F)(F)F)C/C=C/[C@H](C)[C@H](O)[C@@H](C)C(=O)C(C)(C)[C@@H](O)CC(=O)O1 [Compound 29, 26-trifluoro-trans-9,10-dehydro-12,13-desoxyepothilone B]
- Fold change, PTPL (6 h): −2.46 fold
- Fold change, T RIM34 (6 h): −5.66 fold
- Fold change, TRIM22 (6 h): −2.46 fold
- Fold change, GIP3 [1]: −6.06 fold
- Fold change, IFI 27 [1]: −7.46 fold
- Fold change, IFTM1 [1]: −4.00 fold
- Fold change, MX1 [1]: −2.00 fold
- Fold change in expression, AIP1 (18 h): +2.14 fold
- Fold change in expression, AKAP9 (18 h): +2.00 fold
- Fold change in expression, APBB2 (18 h): +2.00 fold
- Fold change in expression, APG16L (18 h): +2.00 fold
- Fold change in expression, APRIN (18 h): +2.00 fold
- Fold change in expression, BAX (18 h): +2.00 fold
- Fold change in expression, CCL3 (18 h): +3.48 fold
- Fold change in expression, CCT8 (18 h): +2.30 fold
- Fold change in expression, CD72 (18 h): +2.30 fold
- Fold change in expression, CEB1 (18 h): −2.30 fold
- Fold change in expression, CLorf29 (18 h): −6.06 fold
- Fold change in expression, Cyclin E2 (18 h): −2.64 fold
- Fold change in expression, DNAJB1 (18 h): +2.30 fold
- Fold change in expression, DUSP6 (18 h): −2.14 fold
- Fold change in expression, EIFA1 (18 h): +2.30 fold
- Fold change in expression, ETS2 (18 h): +2.46 fold
- Fold change in expression, F11 (18 h): −4.00 fold
- Fold change in expression, FBXO5 (18 h): −2.30 fold
- Fold change in expression, FLJ20045 (18 h): −2.46 fold
- Fold change in expression, FLJ20130 (18 h): −5.66 fold
- Fold change in expression, FLJ20241 (18 h): +3.73 fold
- Fold change in expression, Fibrillin 2 (18 h): +12.3 fold
- Fold change in expression, GA17 (18 h): +2.64 fold
- Fold change in expression, GTF2H2 (18 h): +3.03 fold
- Fold change in expression, HDAC9 (18 h): −2.00 fold
- Fold change in expression, HNRPD (18 h): −3.25 fold
- Fold change in expression, HSPA1A (18 h): +2.14 fold
- Fold change in expression, HSPA1B (18 h): +2.00 fold
- Fold change in expression, JUN (18 h): +2.64 fold
- Fold change in expression, KIAA0191 protein (18 h): +2.14 fold
- Fold change in expression, KIAA1025 protein (18 h): +3.25 fold
- Fold change in expression, MADH1 (18 h): +2.00 fold
- Fold change in expression, MARS (18 h): −2.00 fold
- Fold change in expression, NRTN (18 h): −2.3 fold
- Fold change in expression, PCNX (18 h): +3.48 fold
- Fold change in expression, PHC3 (18 h): +2.83 fold
- Fold change in expression, PKD1 (18 h): +7.46 fold
- Fold change in expression, POU4F1 (18 h): −2.14 fold
- Fold change in expression, PRKCBP1 (18 h): +2.64 fold
- Fold change in expression, PRKDC (18 h): +21.11 fold
- Fold change in expression, REPS1 (18 h): +9.85 fold
- Fold change in expression, RPL23 (18 h): +2.14 fold
- Fold change in expression, SEC24D (18 h): +2.64 fold
- Fold change in expression, SEMA3D (18 h): +2.83 fold
- Fold change in expression, SERPINH1 (18 h): +2.00 fold
- Fold change in expression, SLC13A1 (18 h): +3.03 fold
- Fold change in expression, SMA3 (18 h): +2.46 fold
- Fold change in expression, TCS2 (18 h): +2.30 fold
- Fold change in expression, TMEM1 (18 h): +2.14 fold
- Fold change in expression, TRA2A (18 h): +3.03 fold
- Fold change in expression, TRIO (18 h): +4.29 fold
- Fold change in expression, VEZATIN (18 h): +2.00 fold
- Fold change in expression, ZF (HCF-binding transcription factor) (18 h): −6.50 fold
- Fold change in expression, ZFY (18 h): +2.14 fold
- Fold change, CEB1 (18 h): −2.00 fold
- Fold change, DUSP4 (18 h): −2.14 fold
- Fold change, HMT-1 (18 h): +11.3 fold
- Fold change, IFIT1 (18 h): −2.00 fold
- Fold change, OAS2 (18 h): −2.00 fold
- Fold change, PLSCR1 (18 h): −2.00 fold
- Fold change, PPAP2C (18 h): −2.14 fold
- Fold change, TRIM22 (18 h): −2.00 fold
- Fold change, GIP3 [2]: −5.28 fold
- Fold change, IFI 27 [2]: −5.28 fold
- Fold change, IFITM1 [2]: −3.25 fold
- Fold change, MX1 [2]: −2.30 fold
- Fold change in expression, G1P3 (18 hrs, ×10 IC50 dose, vs control): −3.73 fold
